This is an account of results in PubChem BioAssay AID434987 (Southern Research Specialized Biocontainment Screening …, 2010).

For this test, the system named is M. tuberculosis H37Rv growth inhibition with meropenem. In words: dose response, H37Rv, with and without meropenem (AID 434987).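 Also: growth over 7 days at 37 °C before Alamar Blue read on day 9.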
Setting [1] is: M. tuberculosis H37Rv growth inhibition, measured here: IC50 without meropenem.
Setting [2] is: M. tuberculosis H37Rv growth inhibition, measured here: IC90 without meropenem.
[3] abbreviates: measured here: IC90 with meropenem.

Each structure is given as a SMILES string. The source made the active and inactive calls. No rule for the calls is given here. A value given as a limit tells only on which side of the number the result lay.

For `CCSc1nnc(NC(=O)C2Cc3ccccc3CN2C(=O)c2ccco2)s1` (stereo not drawn), the concentration for half-maximal inhibition (IC50) (as a rule, the concentration needed to halve the response being measured) was 2.69 µM. Under setting [1], this molecule registered an IC50 of more than 100 µM. Also, the IC90 (in general, the point of the concentration-response curve where the effect stands at 90%) under setting [2] is more than 100 µM. The molecule also came in with an IC90 under setting [3] of more than 100 µM.

As to `Cc1[nH]c2c(C)cccc2c1CCNC(=O)c1ccc2c(c1[N+](=O)[O-])C(=O)c1ccccc1C2=O`, the IC50 is > 100 µM (inactive). Under setting [1], this molecule showed an IC50 of more than 100 µM. Besides, the IC90 under setting [2] was more than 100 µM. For the same molecule, under setting [3], the concentration for an effect of 90% (IC90) was more than 100 µM.

`Cc1cccc(N2CCN(CC3CCCCC3)CC2)c1C`: the IC50 is 48.5 µM (inactive). The same molecule returned an IC50 under setting [1] of 90.5 µM. Moreover, under setting [2], the IC90 was more than 100 µM. In addition, under setting [3], the IC90 is 53.2 µM.

Consider `CN(C)S(=O)(=O)n1cc(/C=C(\NC(=O)c2ccccc2)C(=O)NCCN2CCOCC2)c2ccccc21`, for which the IC50 was > 100 µM (inactive). In addition, under setting [1], the concentration for half-maximal inhibition (IC50) is more than 100 µM. Besides, under setting [2], the IC90 is more than 100 µM. This molecule gave an IC90 under setting [3] of more than 100 µM.

With `Cc1cccc(C)c1NC(=O)C1CC2CCC1C2` (stereo not drawn), the IC50 is > 100 µM (inactive). The molecule also displayed an IC50 under setting [1] of more than 100 µM. Moreover, under setting [2], the IC90 is more than 100 µM. Besides, under setting [3], the IC90 is more than 100 µM.

For `O=C(NNC1=C(C(=O)C(F)(F)F)CCC1)c1cccc(O)c1`, the IC50 is 68 µM (inactive). Besides, the 50% inhibitory concentration (IC50) under setting [1] was more than 100 µM. The same molecule yielded an IC90 under setting [2] of more than 100 µM. Further, the 90% effect concentration (IC90) under setting [3] is more than 100 µM.

Consider `CCCOc1ccc(C(=O)N/N=C/c2ccc(-c3ccc(S(=O)(=O)Nc4ncccn4)cc3)o2)cc1`, for which the IC50 is 22.4 µM (inactive). Moreover, under setting [1], the IC50 was determined as 39.8 µM. The concentration for an effect of 90% (IC90) under setting [2] is more than 100 µM. Under setting [3], this molecule registered a concentration for an effect of 90% (IC90) of 26.1 µM.

Consider `CN1C2CCC1CC(OC(=O)c1ccc([N+](=O)[O-])cc1)C2` (stereo not drawn), for which the IC50 is > 100 µM (inactive). Further, the IC50 under setting [1] is more than 100 µM. The molecule further gave an IC90 under setting [2] of more than 100 µM. The IC90 under setting [3] was more than 100 µM.

Consider `CCOC(=O)C1CCN(C(=O)CCCCn2c(=O)[nH]c3ccccc3c2=O)CC1`, for which the IC50 is > 100 µM (inactive). The molecule also came in with a 50% inhibitory concentration (IC50) under setting [1] of more than 100 µM. Besides, the IC90 under setting [2] is more than 100 µM. This molecule also yielded an IC90 under setting [3] of more than 100 µM.

As for `Cc1c(NC(=O)c2noc3c2CCc2ccccc2-3)c(=O)n(-c2ccccc2)n1C`, the IC50 was 28.3 µM. Under setting [1], the IC50 was more than 100 µM. The 90% effect concentration (IC90) under setting [2] was more than 100 µM. Under setting [3], this molecule gave a concentration for an effect of 90% (IC90) of more than 50 µM.

`COc1cc2c(C(=O)N3CCN(c4ccccc4C)CC3)c(C)oc2cc1Br`: the IC50 is > 100 µM (inactive). This molecule also came in with a half-maximal inhibitory concentration (IC50) under setting [1] of more than 100 µM. This molecule showed an IC90 under setting [2] of more than 100 µM. Also, the 90% effect concentration (IC90) under setting [3] is more than 100 µM.

Consider `O=C(O)CCN1C(=O)/C(=C/c2ccc(-c3nc4ccccc4s3)o2)SC1=S`, for which the IC50 is 38.3 µM (inactive). Also, the IC50 under setting [1] turned out to be 60.1 µM. Further, the concentration for an effect of 90% (IC90) under setting [2] was more than 100 µM. Further, the concentration for an effect of 90% (IC90) under setting [3] amounted to 78.4 µM.

For the molecule `CC(C)Cn1c2c(c(O)c(C(=O)Nc3nccs3)c1=O)CCCC2`, the IC50 was 3.22 µM. Also, under setting [1], the IC50 was determined as 45.7 µM. Under setting [2], this molecule gave a 90% effect concentration (IC90) of 52.4 µM. The concentration for an effect of 90% (IC90) under setting [3] is more than 100 µM.

Consider `COC(=O)c1cccc(NC(=S)NCCC2=CCCCC2)c1`, for which the IC50 is > 100 µM (inactive). This molecule gave a 50% inhibitory concentration (IC50) under setting [1] of more than 100 µM. The molecule also yielded an IC90 under setting [2] of more than 100 µM. Under setting [3], this molecule registered an IC90 of more than 100 µM.

For the molecule `CCOC(=O)NC1c2ccccc2Oc2ccccc21`, the IC50 was 37.6 µM. The molecule also showed a half-maximal inhibitory concentration (IC50) under setting [1] of more than 100 µM. The molecule further had an IC90 under setting [2] of more than 100 µM. The same molecule returned an IC90 under setting [3] of more than 50 µM.

With `CCOC(=O)c1c(C)[nH]c(C)c1C(=O)COC(=O)c1ccc(S(=O)(=O)N(CC)CC)cc1`, the IC50 is 92.6 µM (inactive). In addition, the IC50 under setting [1] was more than 100 µM. Moreover, the concentration for an effect of 90% (IC90) under setting [2] was more than 100 µM. For the same molecule, under setting [3], the 90% effect concentration (IC90) is more than 100 µM.

In the case of `O=[N+]([O-])c1cc(C(F)(F)F)ccc1NCCc1c[nH]c2ccc(O)cc12`, the IC50 is 33.9 µM (inactive). Besides, the IC50 under setting [1] was 52.8 µM. Under setting [2], this molecule registered an IC90 of more than 100 µM. Under setting [3], this molecule came in with a 90% effect concentration (IC90) of 72.9 µM.

On to `CCCc1c(C)nc2c(OC)cccc2c1SCC(=O)O`, for which the IC50 is > 100 µM (inactive). Under setting [1], the half-maximal inhibitory concentration (IC50) was more than 100 µM. Further, the IC90 under setting [2] is more than 100 µM. This molecule also gave an IC90 under setting [3] of more than 100 µM.

As to `COc1cc(-c2nc(S(=O)(=O)c3ccc(C)cc3)c(N3CCOCC3)o2)cc(OC)c1OC`, the IC50 is > 100 µM (inactive). Also, the IC50 under setting [1] is more than 100 µM. The molecule further came in with a concentration for an effect of 90% (IC90) under setting [2] of more than 100 µM. The IC90 under setting [3] was more than 100 µM.

As for `Cc1cc(C)cc(SCc2noc(C(=O)NC(C)C)c2C(=O)O)c1`, the IC50 is 25.1 µM (inactive). The half-maximal inhibitory concentration (IC50) under setting [1] came to 45.2 µM. Under setting [2], the IC90 turned out to be 50.7 µM. Besides, the concentration for an effect of 90% (IC90) under setting [3] came to 27.3 µM.

With `CCOC(=O)/C=C/c1ccc2c(c1)S(=O)(=O)N(Cc1ccc(OC)cc1)[C@H]2CC(=O)OCC`, the IC50 is > 100 µM (inactive). Besides, the IC50 under setting [1] was more than 100 µM. Besides, the IC90 under setting [2] was more than 100 µM. In addition, the concentration for an effect of 90% (IC90) under setting [3] was more than 100 µM.

Take `CCOc1cc(/C=N/Nc2nc(-c3cccs3)c(NC(C)=O)s2)ccc1O`: the IC50 is 42.4 µM (inactive). The molecule further gave an IC50 under setting [1] of more than 100 µM. Under setting [2], this molecule registered a concentration for an effect of 90% (IC90) of more than 100 µM. For the same molecule, under setting [3], the concentration for an effect of 90% (IC90) was more than 100 µM.
